e = 2'-O-(2-methoxyethyl) (MOE); d = 2'-deoxy (DNA)
Columns and labels:
mouse p38α mRNA = assay: Mouse p38α mRNA levels in bEND.3 cells, quantitative real-time PCR; assay type: cell-based; set-up: % Inhib. mouse p38α: concentration or dose not given beside the values; details: bEND.3 cells, mRNA by quantitative real-time PCR, average of two experiments
Excerpt: (§1) Quantitation of p38α mRNA levels was accomplished by real-time quantitative PCR using the ABI PRISM™ 7600, 7700, or 7900 Sequence Detection System (PE-Applied Biosystems, Foster City, Calif.) according to manufacturer's instructions. This is a closed-tube, non-gel-based, fluorescence detection system which allows high-throughput quantitation of polymerase chain reaction (PCR) products in real-time. As opposed to standard PCR in which amplification products are quantitated after the PCR is completed, products in real-time quantitative PCR are quantitated as they accumulate. This is accomplished by including in the PCR reaction an oligonucleotide probe that anneals specifically between the forward and reverse PCR primers, and contains two fluorescent dyes. A reporter dye (e.g., FAM or JOE, obtained from either PE-Applied Biosystems, Foster City, Calif., Operon Technologies Inc., Alameda, Calif. or Integrated DNA Technologies Inc., Coralville, Iowa) is attached to the 5′ end of the probe and a quencher dye (e.g., TAMRA, obtained from either PE-Applied Biosystems, Foster City, Calif., Operon Technologies Inc., Alameda, Calif. or Integrated DNA Technologies Inc., Coralville, Iowa) is attached to the 3′ end of the probe. When the probe and dyes are intact, reporter dye emission is quenched by the proximity of the 3′ quencher dye. During amplification, annealing of the probe to the target sequence creates a substrate that can be cleaved by the 5′-exonuclease activity of Taq polymerase. […] With each cycle, additional reporter dye molecules are cleaved from their respective probes, and the fluorescence intensity is monitored at regular intervals by laser optics built into the ABI PRISM™ Sequence Detection System. In each assay, a series of parallel reactions containing serial dilutions of mRNA from untreated control samples generates a standard curve that is used to quantitate the percent inhibition after antisense oligonucleotide treatment of test samples.
(§2) Prior to quantitative PCR analysis, primer-probe sets specific to the target gene being measured are evaluated for their ability to be “multiplexed” with a GAPDH amplification reaction. In multiplexing, both the target gene and the internal standard gene GAPDH are amplified concurrently in a single sample. In this analysis, mRNA isolated from untreated cells is serially diluted. Each dilution is amplified in the presence of primer-probe sets specific for GAPDH only, target gene only (“single-plexing”), or both (multiplexing). Following PCR amplification, standard curves of GAPDH and target mRNA signal as a function of dilution are generated from both the single-plexed and multiplexed samples. If both the slope and correlation coefficient of the GAPDH and target signals generated from the multiplexed samples fall within 10% of their corresponding values generated from the single-plexed samples, the primer-probe set specific for that target is deemed multiplexable. Other methods of PCR are also known in the art.
(§3) PCR reagents were obtained from Invitrogen Corporation, (Carlsbad, Calif.). […] The RT reaction was carried out by incubation for 30 minutes at 48° C. Following a 10 minute incubation at 95° C. to activate the PLATINUM® Taq, 40 cycles of a two-step PCR protocol were carried out: 95° C. for 15 seconds (denaturation) followed by 60° C. for 1.5 minutes (annealing/extension).
(§4) Gene target quantities obtained by real time RT-PCR are normalized using either the expression level of GAPDH, a gene whose expression is constant, or by quantifying total RNA using RiboGreen™ (Molecular Probes, Inc. Eugene, Oreg.). GAPDH expression is quantified by real time RT-PCR, by being run simultaneously with the target, multiplexing, or separately. Total RNA is quantified using RiboGreen™ RNA quantification reagent (Molecular Probes, Inc. Eugene, Oreg.). Methods of RNA quantification by RiboGreen™ are taught in Jones, L. J., et al, (Analytical Biochemistry, 1998, 265, 368-374). […]

rat p38α mRNA = assay: Rat p38α mRNA levels in NR-8383 cells, quantitative real-time PCR; assay type: cell-based; details: 300 nM oligonucleotide with FuGENE 6, 24 hours, mRNA by quantitative real-time PCR, average of two experiments
Excerpt: as §1, §2, §3, §4

Row | Substance | % Inhib. mouse p38α (mouse p38α mRNA) [%] | % Inhib. rat p38α (rat p38α mRNA) [%]
1 | 101755 (antisense CATCATCAGGGTCGTGGTAC; sugars from the 5' end e5 d10 e5, all phosphorothioate, methylation of C not given here) [compound 101755] | 84 | 74
2 | 306022 (antisense GGCCAGAGACTGAATGTAGT; sugars from the 5' end e5 d10 e5, all phosphorothioate, methylation of C not given here) [compound 306022] | 78 | 53
3 | 320103 (antisense AGCTCCTGCCGGTAGAACGT; sugars from the 5' end e5 d10 e5, all phosphorothioate, methylation of C not given here) [compound 320103] | 81 | 55
4 | 320104 (antisense TCAAAAGCAGCACACACCGA; sugars from the 5' end e5 d10 e5, all phosphorothioate, methylation of C not given here) [compound 320104] | 82 | 42
5 | 320105 (antisense CCCGTCTTTGTATCAAAAGC; sugars from the 5' end e5 d10 e5, all phosphorothioate, methylation of C not given here) [compound 320105] | 89 | 59
6 | 320106 (antisense AACGGTCTCGACAGCTTCTT; sugars from the 5' end e5 d10 e5, all phosphorothioate, methylation of C not given here) [compound 320106] | 91 | 67
7 | 320107 (antisense TAGGTCCTTTTGGCGTGAAT; sugars from the 5' end e5 d10 e5, all phosphorothioate, methylation of C not given here) [compound 320107] | 84 | 60
8 | 320108 (antisense AGATGGGTCACCAGGTACAC; sugars from the 5' end e5 d10 e5, all phosphorothioate, methylation of C not given here) [compound 320108] | 61 | 57
9 | 320109 (antisense GCCCCCATGAGATGGGTCAC; sugars from the 5' end e5 d10 e5, all phosphorothioate, methylation of C not given here) [compound 320109] | 69 | 34
10 | 320110 (antisense TCATCAGTGTGCCGAGCCAG; sugars from the 5' end e5 d10 e5, all phosphorothioate, methylation of C not given here) [compound 320110] | 87 | 54
11 | 320111 (antisense GTCAACAGCTCAGCCATGAT; sugars from the 5' end e5 d10 e5, all phosphorothioate, methylation of C not given here) [compound 320111] | 86 | 55
12 | 320112 (antisense CGTTCTTCCGGTCAACAGCT; sugars from the 5' end e5 d10 e5, all phosphorothioate, methylation of C not given here) [compound 320112] | 93 | 58
13 | 320113 (antisense ATCAATATGGTCTGTACCAG; sugars from the 5' end e5 d10 e5, all phosphorothioate, methylation of C not given here) [compound 320113] | 35 | 9
14 | 320114 (antisense CTTAAAATGAGCTTCAACTG; sugars from the 5' end e5 d10 e5, all phosphorothioate, methylation of C not given here) [compound 320114] | 71 | 60
15 | 320115 (antisense GGGTTCCAACGAGTCTTAAA; sugars from the 5' end e5 d10 e5, all phosphorothioate, methylation of C not given here) [compound 320115] | 67 | 53
16 | 320116 (antisense TCAGAAGCTCAGCCCCTGGG; sugars from the 5' end e5 d10 e5, all phosphorothioate, methylation of C not given here) [compound 320116] | 95 | 73
17 | 320117 (antisense GGAGATTTTCTTCAGAAGCT; sugars from the 5' end e5 d10 e5, all phosphorothioate, methylation of C not given here) [compound 320117] | 72 | 55
18 | 320118 (antisense CAGACTCTGAGGAGATTTTC; sugars from the 5' end e5 d10 e5, all phosphorothioate, methylation of C not given here) [compound 320118] | 47 | 69
19 | 320122 (antisense ATTTGCGAAGTTCATCTTCG; sugars from the 5' end e5 d10 e5, all phosphorothioate, methylation of C not given here) [compound 320122] | 73 | 48
20 | 320123 (antisense CAATAAATACATTTGCGAAG; sugars from the 5' end e5 d10 e5, all phosphorothioate, methylation of C not given here) [compound 320123] | 79 | 32
21 | 320124 (antisense GGATTGGCACCAATAAATAC; sugars from the 5' end e5 d10 e5, all phosphorothioate, methylation of C not given here) [compound 320124] | 29 | 31
22 | 320125 (antisense GCTGCTGTGATCCTCTTATC; sugars from the 5' end e5 d10 e5, all phosphorothioate, methylation of C not given here) [compound 320125] | 67 | 63
23 | 320126 (antisense AGGCATGCGCAAGAGCTTGG; sugars from the 5' end e5 d10 e5, all phosphorothioate, methylation of C not given here) [compound 320126] | 90 | 69
24 | 320127 (antisense TGAGCAAAGTAGGCATGCGC; sugars from the 5' end e5 d10 e5, all phosphorothioate, methylation of C not given here) [compound 320127] | 73 | 56
